Data on four molecules can be found in ChEMBL document CHEMBL1201862, “PubChem BioAssay data set” (2004).

A short description of assay [1]: LGR2 antagonists, dose response, cell-based, HEK293, CRE-luciferase reporter, cherry pick, set 2 (AID 743343).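 Also: transfected cells were stimulated with diluted bursicon conditioned medium after compound addition.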 The class given is functional.
The subject of assay [2] is HEK293. Put plainly: NOD2 signaling inhibitors in MDP-stimulated cells, cell-based, uHTS, luminescence (AID 2001). The format is functional. The note with it: Homo sapiens.
Assay [3] can be described thus: HEK293 cell cytotoxicity, dose response, cytotoxicity control, plate reader, cherry-picked samples (AID 743446). The format is functional, cell-based.
Assay [4] deals with HEK293. In words: cells. The class given is functional, cell-based. The note with it: Homo sapiens.
Assay [5] deals with HEK293. In words: NOD1 signaling inhibitors, primary screen, cell-based, luminescence, uHTS (AID 1578). The class given is functional. The note with it: Homo sapiens.
For assay [6], the target named is T1, Heat shock factor protein 1 (Mus musculus, UniProt P38532).
T1 sequence (P38532 whole entry): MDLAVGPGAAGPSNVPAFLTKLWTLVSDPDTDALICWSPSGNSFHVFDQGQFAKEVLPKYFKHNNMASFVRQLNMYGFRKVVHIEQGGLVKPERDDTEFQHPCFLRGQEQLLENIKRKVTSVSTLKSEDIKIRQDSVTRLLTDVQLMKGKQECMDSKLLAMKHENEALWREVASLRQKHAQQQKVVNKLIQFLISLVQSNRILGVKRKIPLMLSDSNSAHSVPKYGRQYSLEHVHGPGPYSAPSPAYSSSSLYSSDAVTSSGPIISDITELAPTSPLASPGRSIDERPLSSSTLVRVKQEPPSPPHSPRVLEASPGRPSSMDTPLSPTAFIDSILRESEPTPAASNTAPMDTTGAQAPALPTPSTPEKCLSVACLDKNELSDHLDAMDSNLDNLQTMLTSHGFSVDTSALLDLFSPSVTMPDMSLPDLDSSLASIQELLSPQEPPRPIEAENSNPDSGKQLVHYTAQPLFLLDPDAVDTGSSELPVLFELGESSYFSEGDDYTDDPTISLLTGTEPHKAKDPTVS
In words: inhibition of MG132-induced HSE-luciferase signal, confirmation, cell-based, NIH3T3, luminescence, dose retest (AID 2382).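 Also: NIH3T3 fibroblasts with HSF1-driven luciferase reporter stressed by proteasome inhibitor MG132; luminescence from HSF1-driven luciferase expression after 8 hours of MG132 stress.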 The format is functional.

In assay [7] the target is Luciferin 4-monooxygenase (Photuris pensylvanica, UniProt Q27757). Put plainly: firefly luciferase enzyme inhibitors, dose response, counter-screen for HSF-1 reporter inhibitor project, biochemical, Cell Titer Glo, luminescence, cherry-picks (AID 588847).
Sequence of Luciferin 4-monooxygenase (Q27757 whole entry, the tested form may be a part): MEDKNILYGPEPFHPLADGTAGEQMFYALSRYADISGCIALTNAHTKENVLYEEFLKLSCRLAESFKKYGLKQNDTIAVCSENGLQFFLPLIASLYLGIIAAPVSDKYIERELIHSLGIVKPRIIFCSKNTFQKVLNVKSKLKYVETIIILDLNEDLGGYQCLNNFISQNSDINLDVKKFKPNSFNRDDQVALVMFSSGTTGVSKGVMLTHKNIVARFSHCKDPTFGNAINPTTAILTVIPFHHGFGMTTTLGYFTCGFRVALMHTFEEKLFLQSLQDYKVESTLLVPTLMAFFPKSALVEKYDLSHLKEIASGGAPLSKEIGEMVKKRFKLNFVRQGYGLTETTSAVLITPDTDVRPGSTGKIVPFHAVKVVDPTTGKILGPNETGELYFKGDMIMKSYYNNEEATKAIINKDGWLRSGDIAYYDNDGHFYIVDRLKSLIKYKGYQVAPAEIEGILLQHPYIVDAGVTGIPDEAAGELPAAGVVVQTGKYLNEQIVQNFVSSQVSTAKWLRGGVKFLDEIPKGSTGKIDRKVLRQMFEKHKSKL
For assay [8], the target named is Nucleotide-binding oligomerization domain-containing protein 2 (Homo sapiens, UniProt Q9HC29). In words: NOD2 signaling inhibitors, cell-based, luminescence, uHTS, HEK293 (AID 1566). The class given is functional.
Sequence of Nucleotide-binding oligomerization domain-containing protein 2 (Q9HC29 whole entry, the tested form may be a part): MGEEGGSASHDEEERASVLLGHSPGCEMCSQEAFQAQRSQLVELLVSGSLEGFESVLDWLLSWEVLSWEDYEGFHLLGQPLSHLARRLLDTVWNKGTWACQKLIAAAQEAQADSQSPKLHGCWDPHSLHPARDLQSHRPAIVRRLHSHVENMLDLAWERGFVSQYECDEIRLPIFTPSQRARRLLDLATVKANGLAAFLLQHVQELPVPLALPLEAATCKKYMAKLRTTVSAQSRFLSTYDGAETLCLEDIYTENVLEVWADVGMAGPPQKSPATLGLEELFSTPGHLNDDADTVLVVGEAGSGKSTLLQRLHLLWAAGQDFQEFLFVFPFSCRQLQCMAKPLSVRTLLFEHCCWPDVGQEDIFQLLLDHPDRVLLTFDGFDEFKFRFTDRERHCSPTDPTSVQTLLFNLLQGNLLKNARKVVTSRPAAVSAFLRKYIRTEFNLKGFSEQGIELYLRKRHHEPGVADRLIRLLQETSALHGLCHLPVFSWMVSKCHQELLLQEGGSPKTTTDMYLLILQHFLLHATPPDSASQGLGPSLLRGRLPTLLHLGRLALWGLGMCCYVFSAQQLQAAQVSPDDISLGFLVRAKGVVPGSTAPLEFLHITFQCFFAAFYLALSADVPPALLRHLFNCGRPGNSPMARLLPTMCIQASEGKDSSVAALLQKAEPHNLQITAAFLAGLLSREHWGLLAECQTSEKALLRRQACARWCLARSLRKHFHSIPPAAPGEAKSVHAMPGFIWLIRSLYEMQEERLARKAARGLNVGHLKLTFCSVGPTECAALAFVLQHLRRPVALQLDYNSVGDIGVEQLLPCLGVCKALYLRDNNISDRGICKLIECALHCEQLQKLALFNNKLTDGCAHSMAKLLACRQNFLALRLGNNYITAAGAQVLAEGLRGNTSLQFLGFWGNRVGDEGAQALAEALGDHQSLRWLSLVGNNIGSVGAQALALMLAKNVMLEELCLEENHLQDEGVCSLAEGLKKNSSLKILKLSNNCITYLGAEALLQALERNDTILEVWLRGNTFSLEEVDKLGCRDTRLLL
Assay [9] can be described thus: MC4R antagonists, dose response, counter-screen for LGR2 antagonist project, cell-based, plate reader, cherry pick (AID 743444).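 Also: transfected HEK 293 cells stimulated with alpha-MSH peptide; potency of inhibitors of the alpha-MSH evoked signal.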 The class given is functional.
For assay [10], the system named is HEK293. Put plainly: cells. The note with it: Homo sapiens. The class given is functional, cell-based. This is another data set of the same source.
Assay [11] has as its system HEK293. In words: cells. The note with it: Homo sapiens. The class given is functional, cell-based. The source holds these as a separate data set.
A short description of assay [12]: HeLa cell cytotoxicity, dose response, cytotoxicity control for MgcRacGAP inhibitor project (AID 624300). The class given is functional.
Assay [13] addresses T2, Rac GTPase-activating protein 1 (Homo sapiens, UniProt Q9H0H5).
T2 sequence (Q9H0H5 whole entry): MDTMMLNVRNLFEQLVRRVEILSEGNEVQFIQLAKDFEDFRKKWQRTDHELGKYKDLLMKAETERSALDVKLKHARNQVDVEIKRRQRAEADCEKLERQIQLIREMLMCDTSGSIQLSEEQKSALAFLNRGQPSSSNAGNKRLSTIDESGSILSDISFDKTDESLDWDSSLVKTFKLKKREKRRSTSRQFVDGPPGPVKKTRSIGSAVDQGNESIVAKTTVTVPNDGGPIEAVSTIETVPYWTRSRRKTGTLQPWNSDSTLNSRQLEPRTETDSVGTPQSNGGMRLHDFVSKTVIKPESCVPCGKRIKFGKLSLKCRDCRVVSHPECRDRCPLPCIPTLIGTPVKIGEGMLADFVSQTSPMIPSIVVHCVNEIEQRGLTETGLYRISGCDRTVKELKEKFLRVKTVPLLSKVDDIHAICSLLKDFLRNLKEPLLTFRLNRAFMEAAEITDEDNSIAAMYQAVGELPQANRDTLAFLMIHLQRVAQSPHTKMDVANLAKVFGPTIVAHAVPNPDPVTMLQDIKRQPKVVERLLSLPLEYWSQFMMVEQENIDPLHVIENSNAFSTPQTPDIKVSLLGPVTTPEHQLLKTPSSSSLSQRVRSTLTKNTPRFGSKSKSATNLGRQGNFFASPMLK
In words: MgcRacGAP GTPase-activating activity inhibitors, confirmation, biochemical, ADP Hunter fluorescence, primary and confirmatory (AID 624330). The format is functional.

The subject of assay [14] is A-375. Put plainly: A375 melanoma cell viability reduction, dose response, counter-screen for MITF modulator project, cherry-pick samples, set 2 (AID 540335). The note with it: Homo sapiens. The class given is functional, cell-based.
Assay [15] deals with T3, Microphthalmia-associated transcription factor (Homo sapiens, UniProt O75030).
T3 sequence (O75030 whole entry): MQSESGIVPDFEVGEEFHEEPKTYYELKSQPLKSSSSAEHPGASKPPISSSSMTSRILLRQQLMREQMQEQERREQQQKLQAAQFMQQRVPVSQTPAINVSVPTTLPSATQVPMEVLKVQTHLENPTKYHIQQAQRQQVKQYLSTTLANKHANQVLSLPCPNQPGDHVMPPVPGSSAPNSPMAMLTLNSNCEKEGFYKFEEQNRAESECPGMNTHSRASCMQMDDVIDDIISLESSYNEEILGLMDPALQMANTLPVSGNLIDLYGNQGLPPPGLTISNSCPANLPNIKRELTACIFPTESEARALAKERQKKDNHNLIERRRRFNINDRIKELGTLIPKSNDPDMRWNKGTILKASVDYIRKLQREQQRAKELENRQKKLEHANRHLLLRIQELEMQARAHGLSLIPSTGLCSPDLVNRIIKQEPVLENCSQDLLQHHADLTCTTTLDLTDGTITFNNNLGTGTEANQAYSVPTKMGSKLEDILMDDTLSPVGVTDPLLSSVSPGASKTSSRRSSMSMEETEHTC
In words: TRPM1 promoter luciferase signal decrease, dose response, MITF inhibitor project, cell-based, SK-MEL-5, cherry-picked, set 3 (AID 493073).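 Also: SK-MEL-5 melanoma cells with luciferase driven by the MITF target TRPM1 promoter.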 The class given is functional.

In assay [16] the target is Delta-type opioid receptor (Homo sapiens, UniProt P41143). Put plainly: Counterscreen for agonists of heterodimerization of the mu 1 (OPRM1) and delta 1 (OPRD1) opioid receptors: Luminescence-based cell-based high throughput dose response assay to identify agonists of OPRD1 homodimerization. [Related pubchem assays (depositor defined):AID504326, AID504355, AID504692, AID504904, AID504905]. The class given is functional.
Sequence of Delta-type opioid receptor (P41143 whole entry): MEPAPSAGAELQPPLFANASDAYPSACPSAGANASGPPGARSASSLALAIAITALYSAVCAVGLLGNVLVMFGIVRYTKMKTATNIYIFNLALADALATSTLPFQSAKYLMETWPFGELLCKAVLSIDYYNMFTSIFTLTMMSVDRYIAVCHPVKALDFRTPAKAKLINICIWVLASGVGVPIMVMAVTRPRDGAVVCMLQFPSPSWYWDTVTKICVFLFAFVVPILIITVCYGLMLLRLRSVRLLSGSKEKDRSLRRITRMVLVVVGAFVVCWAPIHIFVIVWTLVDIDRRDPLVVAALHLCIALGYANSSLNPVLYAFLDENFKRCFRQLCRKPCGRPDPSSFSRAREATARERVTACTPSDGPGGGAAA

Assay [17] concerns the target Mu-type opioid receptor (Homo sapiens, UniProt P35372). Put plainly: Counterscreen for agonists of heterodimerization of the mu 1 (OPRM1) and delta 1 (OPRD1) opioid receptors: Luminescence-based cell-based high throughput dose response assay to identify agonists of OPRM1 homodimerization. The class given is functional.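 Also: U2OS cells expressing OPRM1 and beta-arrestin as split beta-galactosidase partners.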
Assay [18] deals with T4, Short transient receptor potential channel 4 (Mus musculus, UniProt Q9QUQ5).
T4 sequence (Q9QUQ5 whole entry): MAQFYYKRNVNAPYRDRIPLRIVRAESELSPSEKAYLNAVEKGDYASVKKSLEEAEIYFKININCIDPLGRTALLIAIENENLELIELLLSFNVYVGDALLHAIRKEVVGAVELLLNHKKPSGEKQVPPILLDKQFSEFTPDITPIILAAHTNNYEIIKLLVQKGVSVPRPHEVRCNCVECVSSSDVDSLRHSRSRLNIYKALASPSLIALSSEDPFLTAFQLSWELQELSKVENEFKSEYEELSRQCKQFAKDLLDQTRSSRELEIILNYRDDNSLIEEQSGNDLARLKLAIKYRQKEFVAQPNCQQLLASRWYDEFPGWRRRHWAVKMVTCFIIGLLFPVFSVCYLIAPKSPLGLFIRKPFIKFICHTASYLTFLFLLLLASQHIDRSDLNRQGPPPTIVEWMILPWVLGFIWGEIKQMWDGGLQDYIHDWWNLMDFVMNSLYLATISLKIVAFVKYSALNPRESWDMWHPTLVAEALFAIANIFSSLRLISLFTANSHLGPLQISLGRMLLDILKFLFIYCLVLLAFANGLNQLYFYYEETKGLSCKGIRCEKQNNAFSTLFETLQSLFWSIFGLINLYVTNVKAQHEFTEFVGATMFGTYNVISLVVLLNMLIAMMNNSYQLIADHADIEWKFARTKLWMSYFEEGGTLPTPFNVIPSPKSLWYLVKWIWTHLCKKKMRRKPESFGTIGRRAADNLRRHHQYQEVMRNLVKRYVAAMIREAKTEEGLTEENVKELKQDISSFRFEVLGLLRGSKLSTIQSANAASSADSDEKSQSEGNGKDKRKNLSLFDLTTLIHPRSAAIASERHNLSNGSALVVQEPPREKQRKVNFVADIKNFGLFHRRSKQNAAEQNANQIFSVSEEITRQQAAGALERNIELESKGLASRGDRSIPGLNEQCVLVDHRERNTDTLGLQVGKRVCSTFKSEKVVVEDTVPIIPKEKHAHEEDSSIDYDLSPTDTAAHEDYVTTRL
Put plainly: mouse TRPC4 channel activators, dose response, cell-based, HEK293 TRPC4/mu-opioid, Fluo-4 calcium (AID 434937). The class given is functional.

Assay [19] deals with 5-hydroxytryptamine receptor 5A (Homo sapiens, UniProt P47898). In words: Counterscreen for agonists of OPRM1-OPRD1 heterodimerization: luminescence-based cell-based high throughput dose response assay to identify agonists of 5-hydroxytryptamine (serotonin) 5A receptor (HTR5A). [Related pubchem assays (depositor defined):AID504326, AID504355, AID504692, AID504904, AID504905]. The class given is functional.
Sequence of 5-hydroxytryptamine receptor 5A (P47898 whole entry): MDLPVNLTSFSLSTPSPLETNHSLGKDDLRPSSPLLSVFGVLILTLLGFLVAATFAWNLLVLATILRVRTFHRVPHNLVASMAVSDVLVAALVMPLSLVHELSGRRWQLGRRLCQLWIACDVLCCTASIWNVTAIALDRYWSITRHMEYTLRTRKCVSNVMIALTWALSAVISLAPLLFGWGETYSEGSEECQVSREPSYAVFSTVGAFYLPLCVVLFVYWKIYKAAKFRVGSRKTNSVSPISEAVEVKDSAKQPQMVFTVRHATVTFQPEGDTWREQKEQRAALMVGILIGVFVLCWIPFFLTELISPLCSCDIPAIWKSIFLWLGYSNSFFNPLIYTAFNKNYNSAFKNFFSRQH

The test system of assay [20] is Escherichia coli. In words: microbe, parasite or virus in culture.
Assay [21] has as its system Escherichia coli. Put plainly: microbe, parasite or virus in culture. The source holds these as a separate data set.

The source made the active and inactive calls.

Sequence of Mu-type opioid receptor (P35372 whole entry): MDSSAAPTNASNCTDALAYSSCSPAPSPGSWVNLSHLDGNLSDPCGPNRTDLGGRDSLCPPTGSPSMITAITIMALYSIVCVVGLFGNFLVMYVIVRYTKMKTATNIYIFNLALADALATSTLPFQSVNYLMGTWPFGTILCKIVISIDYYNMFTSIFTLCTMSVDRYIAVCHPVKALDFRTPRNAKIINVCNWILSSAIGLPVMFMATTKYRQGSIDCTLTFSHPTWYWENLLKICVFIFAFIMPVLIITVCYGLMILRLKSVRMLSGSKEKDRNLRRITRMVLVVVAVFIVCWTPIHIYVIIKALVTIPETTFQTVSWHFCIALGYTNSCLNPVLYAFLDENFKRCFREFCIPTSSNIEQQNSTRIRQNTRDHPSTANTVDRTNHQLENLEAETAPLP

For `Cc1cccc(-n2ncc3c(N(C)C4CCCCC4)ncnc32)c1`, the AC50 in assay [1] is 0.121 µM (active); in [3], 40.2 µM (active); in assay [7] it was 6.99 µM (active); in assay [9], 0.0758 µM (active). The IC50 in assay [2] is 6.81 µM (active); in [4] it was 0.783 µM (active); in assay [10] it was > 20 µM (inactive); in assay [11] it was > 20 µM (inactive). For the same molecule, the EC50 in [5] is 9.93 µM (active); in [6], < 0.16 µM (active); in assay [8] it was < 0.31 µM (inactive).

In the case of `CN(C)CCNc1ccc2nnn3c4ccc(O)cc4c(=O)c1c23`, in assay [12], the CC50 was 56.5 µM (active). Besides, the IC50 in [13] is 62.6 µM (active). The AC50 in [14] was 46 µM (active); in [15] it was 4.73 µM (active).

As to `COc1ccc(C(CNC(=O)CCOc2ccccc2)N(C)C)cc1` (stereo unspecified), the EC50 in assay [16] is > 92.5 µM (inactive); in [17] it was > 92.5 µM (inactive); in assay [18] it was 1.06 µM (active); in assay [19] it was > 92.5 µM (inactive).

Take `COc1ccc(C)cc1S(=O)(=O)N(C)CC(=O)N1CCC(C(N)=O)CC1`: the AC50 in assay [20] was > 380 µM (inactive); in assay [21] it was 25.7 µM (active).
